Source: patent publication US8168667B2 (Galapagos NV, priority 2006, dated 2012)
Where two headings read alike, the source gives them in different places.

How the values were obtained:
[1] = target: human androgen receptor (hAR) (Homo sapiens, UniProt P10275); assay: Functional response test: hAR transactivation (luciferase reporter) in HALP2 cells; assay type: cell-based
Method in brief: (§1)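 HALP2 cells are HeLa cells stably transfected with CMV-driven hAR and a probasin ARE-luciferase reporter. They were seeded 24 h ahead, then exposed to compounds for 20 hours at 37° C in phenol red-free DMEM with 5% desteroided serum. Luciferase luminescence was measured after lysis; for antagonist mode, compounds were tested against increasing DHT concentrations.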

[2] = system: castrated immature young rats; assay: Adapted model of Hershberger's test (levator ani and ventral prostate weight); assay type: in vivo, Sprague Dawley rats; details: Rattus norvegicus, po, 96 h
Protocol: The selective modulating activity of the androgen receptor was tested in a model of castrated immature young rats. This model, which is widely recognised for evaluating the anabolic effects of androgen compounds on the muscles and on the genitalia, has been described by Hershberger et al. 1953 Proc. Soc. Expt. Biol. Med. 83:175.
The method is based on the measurement of the well-known effects of androgens on the growth of the muscles and the accessory male sex organs in animals, and also in men. The consequences of castration appear in the form of a rapid involution and atrophy of the prostate and the seminal vesicles and of the anus-lifting muscle (levator ani). This effect may be completely compensated by an exogeneous administration of androgen, in particular of testosterone. The model is thus used to determine the capacity of the tested molecules to maintain the weight of the accessory sex and muscle organs in immature castrated rats, and therefore their androgenic efficacy.
Immature young Sprague Dawley rats (4 to 5 weeks old) weighing approximately 140-160 g (Charles River, Les Oncins, FRANCE) were distributed randomly in various groups and were kept in an environment at 22±2° C. with an alternating day/night cycle of 12 hours and ad libitum access to food and drink.
On day 0, that is, seven days before commencement of the first treatment, the rats were weighed individually then anaesthetised with an intraperitoneal dose of Ketamine/xylazine (85/15 mg/kg, approximately 2 ml/kg). Each animal was then placed on a sterile field and the abdomen and the scrotum were disinfected with Betadine and 70% alcohol. In the case of the orchidectomised control animals (ORX), the testicles were removed via an incision in the middle of the scrotum. A sterile suture was then made to ligature the supra-testicular portion of the tissue prior to surgical section of each testicle. The groups of animals to be treated by the tested compounds were operated on in an identical manner. In the case of the intact control animals (SHAM), the testicles were similarly extracted and reintroduced delicately to their original location. The site of surgical intervention was then sutured using sterile suture thread, and the site was disinfected again by application of Betadine. Each animal was then kept under a sterile pad until it awoke, before being returned to its cage. The animals were kept in an environment at 22±2° C. with an alternating day/night cycle of 12 hours and ad libitum access to food and drink. The animals were treated with the molecules to be tested from post-surgery day 7 and until day 10 preceding sacrifice (day 11).
The rats were split into groups and treated daily from day 7 to day 10 under the conditions defined below: • 1. SHAM control group: Vehicle (0.5% aqueous methyl cellulose) administered per os. • 2. ORX control group: Vehicle (0.5% aqueous methyl cellulose) administered per os. • 3. Treated ORX group: The tested compounds were administered individually per os in suspension in the vehicle described above, in a dose of 30 mg/kg.
After treatment for 4 successive days, the animals were decapitated using a guillotine. The levator ani and the ventral prostate were removed and weighed individually. For comparing inter-experimental data, the weight of each organ was standardised and expressed in milligrammes per 100 g of the weight of the animal (W). For each organ, the average of the standardised weights of the ORX control group was fixed by definition at 0% and the average of the standardised weights of the SHAM control group was fixed by definition at 100%. The efficacy of each product was expressed as a percentage and calculated using the following formula: (Wtreated−WORX)/(WSHAM−WORX)×100 A subsequent ANOVA test was used for statistical analysis to identify the differences between groups.

[3] = system: castrated C57/B16J male mice; assay: Model of osteoporosis in male mice (trabecular BMD of tibia); assay type: in vivo; details: Mus musculus, sc, 672 h, ORX mice, 30 mg/kg subcutaneously daily, day 1 to 28, ORX = 0%, SHAM = 100%, read-out: efficacy in protecting mineral bone density
Protocol: C57/B16J male mice aged 12 weeks and weighing approximately 20-25 g (Charles River, Les Oncins, FRANCE) were operated on as described above with regard to the rats. Castration mimicked the bone loss caused by androgen deficit. The aim of the study is to evaluate the capacity of the compounds to preserve and/or increase the bone mass. This is evaluated by measuring the bone mineral density (BMD). This model has previously been documented by Sims et al. 2003 J. Clin. Invest. 111(9):1319-27.
The animals were separated randomly into various groups and were kept in an environment at 22±2° C. with an alternating day/night cycle of 12 hours and ad libitum access to food and drink.
The tested compounds were administered from post-surgery day 1 and until day 28 preceding sacrifice (day 29). The mice were treated daily under the conditions defined below: • 1. SHAM control group: Vehicle (10/90 ethanol/corn oil mixture) administered subcutaneously. • 2. ORX control group: Vehicle (10/90 ethanol/corn oil mixture) administered subcutaneously. • 3. Treated ORX group: The tested compounds were administered individually subcutaneously in the vehicle described above, in a dose of 30 mg/kg.
During necropsy, the mice were first weighed then decapitated. The two hindlimbs were then carefully disarticulated at the femoral neck. The right hindlimb was frozen at −20° C. Densitometric quantitative analysis was performed on the trabecular portion of the tibia proximal metaphysis using a tomo densitometer (Stratec SA+, Hologic, Norland).
The average of the trabecular BMD of the mice in the ORX control group was defined as 0%. The average of the trabecular BMD of the mice in the SHAM control group was defined as 100%. The efficacy of each product as a percentage was calculated using the formula: (BMDtreated−BMDORX)/(BMDSHAM−BMDORX)×100
A subsequent ANOVA test was used for statistical analysis to identify the differences between groups.

[4] = target: T1, human androgen receptor (hAR) (Homo sapiens, UniProt P10275); assay: Functional response test: hAR transactivation (luciferase reporter) in HALP2 cells; assay type: cell-based; remark: listed apart in the source
T1 sequence (P10275 1-920): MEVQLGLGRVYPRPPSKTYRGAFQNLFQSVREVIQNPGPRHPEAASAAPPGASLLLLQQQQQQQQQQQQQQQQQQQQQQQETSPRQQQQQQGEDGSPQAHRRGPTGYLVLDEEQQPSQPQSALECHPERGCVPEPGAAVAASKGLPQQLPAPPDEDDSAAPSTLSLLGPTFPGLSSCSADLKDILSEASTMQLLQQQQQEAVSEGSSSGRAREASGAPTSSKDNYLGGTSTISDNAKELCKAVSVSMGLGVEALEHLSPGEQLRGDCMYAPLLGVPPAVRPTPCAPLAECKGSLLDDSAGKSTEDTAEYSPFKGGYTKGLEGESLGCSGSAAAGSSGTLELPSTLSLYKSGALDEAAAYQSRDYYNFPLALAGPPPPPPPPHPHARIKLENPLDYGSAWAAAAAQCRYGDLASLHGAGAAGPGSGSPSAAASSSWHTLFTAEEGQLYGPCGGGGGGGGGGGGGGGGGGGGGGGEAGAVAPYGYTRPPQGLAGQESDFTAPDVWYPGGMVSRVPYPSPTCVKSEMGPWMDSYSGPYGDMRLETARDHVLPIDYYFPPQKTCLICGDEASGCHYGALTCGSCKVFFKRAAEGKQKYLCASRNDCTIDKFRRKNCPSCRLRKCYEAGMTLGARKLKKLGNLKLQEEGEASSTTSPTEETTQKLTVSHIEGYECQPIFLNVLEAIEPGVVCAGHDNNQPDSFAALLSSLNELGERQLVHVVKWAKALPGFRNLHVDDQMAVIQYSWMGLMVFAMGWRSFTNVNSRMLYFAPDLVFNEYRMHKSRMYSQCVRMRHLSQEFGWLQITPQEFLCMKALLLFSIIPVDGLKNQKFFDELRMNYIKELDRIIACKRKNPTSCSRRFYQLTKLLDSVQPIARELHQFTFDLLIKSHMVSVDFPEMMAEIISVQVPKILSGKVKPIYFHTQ
Method in brief: as §1

EC50 [1] [nM] | SMILES | inhibition in vivo at 30 mg/kg ([2]; read-out: anabolic protection efficacy with regard to levator ani) [%] | inhibition in vivo at 30 mg/kg ([2]; read-out: androgenic efficacy with regard to the prostate) [%] | inhibition in vivo at 30 mg/kg [3] [%] | KSchild (nM) potency [4] [nM]
8 | CC1(c2ccc(O)cc2)C(=O)N(c2ccc(Cl)c(Cl)c2)C(=O)N1CCF (stereo not drawn) |  |  |  | 
 | Cc1c(N2C(=O)N(C)C(C)(c3ccc(O)cc3)C2=O)ccc(C#N)c1Cl (stereo not drawn) [Example 8, 2-chloro-4-[3,4-dimethyl-2,5-dioxo-4-(4-hydroxyphenyl)imidazolidin-1-yl]-3-methylbenzonitrile] | 50 to 140 | 5 to 70 | 40 to 130 | 
 | C=CCN1C(=S)N(c2ccc(C#N)c(C(F)(F)F)c2)C(=O)C1(C)c1ccc(O)cc1 (stereo not drawn) [Example 7, 4-[4-(4-hydroxyphenyl)-4-methyl-5-oxo-3-(2-propenyl)-2-thioxoimidazolidin-1-yl]-2-trifluoromethylbenzonitrile] |  |  | 40 to 130 | 3.46
